Results as given in US10464918B2, “Process of making somatostatin modulators” (Crinetics Pharmaceuticals, Inc., priority 2018, dated 2019).
In brackets after ≈: the same amount, converted by molar mass. Structures can show the parent of a compound that is named as a salt. Where two headings read alike, the source gives them in different places.

Assays:
[1] = target: human SSTR2 (Homo sapiens (Human), UniProt P30874); assay: Functional cAMP assay for SSTR2 agonists; assay type: cell-based; settings: inhibition of cAMP activities via human SST2R; CHO-K1 cells stably expressing human SSTR2
Protocol: General overview: All five SSTR subtypes are Gi coupled G-protein coupled receptors (GPCRs) that lead to decreases in intracellular cyclic AMP (cAMP) when activated by an agonist. […] Human SSTR2 intracellular cAMP assay is described below. The human SSTR1, 3, 4 and 5 assays follow the same protocol of SSTR2.
The cells are cultured at 37° C., 5% CO2 and 95% humidity. […] The cells are incubated for 20 minutes at 37° C. […] The cells are treated with 50 μL of lysis buffer (HRTF cAMP kit, Cisbio). The lysate is transferred to 384-well plates and cAMP detection and visualization antibodies are added and incubated for 1-24 hours at room temperature. The time-resolved fluorescent signal is read with a Tecan M1000Pro multiplate reader. The intracellular cAMP concentrations are calculated by regression to a standard curve and are plotted vs. the concentration of the compounds of the invention and the EC50 of the compounds are calculated using standard methods. All data manipulations are in GraphPad Prism v6.

[2] = Solubility in water, FaSSGF and FaSSIF (slurry, HPLC); assay type: physicochemical; settings: slurried at 37° C. for 2 days; for solubility at 2 days: 37 °C, thermodynamic from solid
Protocol: The salt forms were slurried in water, Fasted State Simulated Gastric Fluid (FaSSGF), and Fasted State Simulated Intestinal Fluid (FaSSIF) at 37° C. for 2 days. Part of the slurry was filtered using a […] syringe filter to recover the supernatant for solubility measurement and the rest was filtered to recover the remaining solid for XRPD analysis.
A calibration curve was developed for measuring concentration via HPLC. Compound A was added to a 100 mL volumetric flask and then filled to the volume with HPLC grade ethanol. […] A 30 minute gradient method with Solvent A as water with 0.1% TFA and solvent B as Methanol:Acetonitrile (1:1) was used.
The calibration correlation was used to measure the solubility of the salt forms. From the clear saturated solution, 0.1 mL liquid was transferred into a 10 mL vial and then filled to the volume with methanol. The solution was then directly injected into the HPLC.

[3] = Dynamic Vapor Sorption (DVS); assay type: physicochemical; settings: for XRPD after DVS analysis: DVS between 2 and 95% RH
Protocol: Dynamic Vapor Sorption (DVS) was done using a DVS Intrinsic 1. The sample is loaded into a sample pan and suspended from a microbalance. A typical sample mass for DVS measurement is 25 mg. Nitrogen gas bubbled through distilled water provides the desired relative humidity.
A typical measurement includes the steps: • 1—Equilibrate at 50% RH • 2—50% to 2%. (50%, 40%, 30%, 20%, 10% and 2%) • a. Hold minimum of 5 mins and maximum of 60 minutes at each humidity. The pass criteria is less than 0.002% change • 3—2% to 95% (2%, 10%, 20%, 30%, 40%, 50%, 60%, 70%, 80%, 90%, 95%) • a. Hold minimum of 5 mins and maximum of 60 minutes at each humidity. The pass criteria is less than 0.002% change • 4—95% to 2% (95%, 80%, 70%, 60%, 50%, 40%, 30%, 20%, 10%, 2%) • a. Hold minimum of 5 mins and maximum of 60 minutes at each humidity. The pass criteria is less than 0.002% change • 5—2% to 50% (2%, 10%, 20%, 30%, 40%, 50%) • a. Hold minimum of 5 mins and maximum of 60 minutes at each humidity. The pass criteria is less than 0.002% change

[4] = Thermal study (TGA/DSC heating followed by XRPD); assay type: physicochemical; settings: heated by TGA/DSC, cooled to RT
Protocol: Differential Scanning calorimetry (DSC) was done using a Mettler Toledo DSC3+. Aluminum crucible with cramped pinned lid were used. The heating rates are usually 10° C. per minute from 30 to 250° C. Thermogravimetric Analysis (TGA) was done using a Mettler Toledo TGA/DSC3+. Aluminum crucible with cramped pinned lid were used. The heating rates are usually 10° C. per minute from 30 to 250° C. […] These peaks were evaluated using thermal analysis and XRPD techniques. Compound A-HCl was heated to various temperatures using TGA/DSC followed by cooling to room temperature and analysis using XRPD. […] The following thermal treatments were performed: Sample 1: heated the salt to 100° C. and cooled to RT followed by XRPD; Sample 2: heated the salt to 150° C. and cooled to RT followed by XRPD; Sample 3: heated the salt to 200° C. and cooled to RT followed by XRPD; Sample 4: heated the salt to 250° C. and cooled to RT followed by XRPD; and Sample 5: heated the salt to 295° C. and cooled to RT followed by XRPD.

[5] = Fasted State Simulated Gastric Fluid (FaSSGF), fassgf or other biorelevant, Fasted State Simulated Gastric Fluid, read-out: Solubility in FaSSGF
[6] = Fasted State Simulated Intestinal Fluid (FaSSIF), fassif, Fasted State Simulated Intestinal Fluid, read-out: Solubility in FaSSIF

Sequence of human SSTR2 (P30874 whole entry): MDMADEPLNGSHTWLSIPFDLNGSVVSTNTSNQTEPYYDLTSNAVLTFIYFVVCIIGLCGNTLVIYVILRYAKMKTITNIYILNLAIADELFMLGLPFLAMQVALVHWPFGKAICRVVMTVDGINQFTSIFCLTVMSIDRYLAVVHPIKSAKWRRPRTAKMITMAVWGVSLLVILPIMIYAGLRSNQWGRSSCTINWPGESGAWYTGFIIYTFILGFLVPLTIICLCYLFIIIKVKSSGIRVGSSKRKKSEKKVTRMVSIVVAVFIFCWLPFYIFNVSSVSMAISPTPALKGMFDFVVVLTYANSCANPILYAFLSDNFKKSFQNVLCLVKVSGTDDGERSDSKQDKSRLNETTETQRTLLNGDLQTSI

O/N=C/c1cccc(-c2ccc3ncc(-c4cc(F)cc(F)c4)c(N4CC[C@@H]5NCCO[C@H]5C4)c3c2)c1O [Compound 1-1, 2-{4-[(4aS,8aS)-octahydro-1H-pyrido[3,4-b][1,4]oxazin-6-yl]-3-(3,5-difluorophenyl)quinolin-6-yl}-6-[(1E)-(hydroxyimino)methyl]phenol]
EC50 [1]: < 10 nM

CO/N=C/c1ccnc(-c2ccc3ncc(-c4cc(C)cc(F)c4)c(N4CC[C@@H]5NCCO[C@H]5C4)c3c2)c1N [Compound 1-2, 2-{4-[(4aS,8aS)-octahydro-1H-pyrido[3,4-b][1,4]oxazin-6-yl]-3-(3-fluoro-5-methylphenyl)quinolin-6-yl}-4-[(1E)-(methoxyimino)methyl]pyridin-3-amine]
EC50 [1]: < 10 nM

CO/N=C/c1ccnc(-c2ccc3ncc(-c4cc(F)cc(Cl)c4)c(N4CC[C@@H]5NCCO[C@H]5C4)c3c2)c1N [Compound 1-3, 2-{4-[(4aS,8aS)-octahydro-1H-pyrido[3,4-b][1,4]oxazin-6-yl]-3-(3-chloro-5-fluorophenyl)quinolin-6-yl}-4-[(1E)-(methoxyimino)methyl]pyridin-3-amine]
EC50 [1]: < 10 nM

Cc1cc(F)cc(-c2cnc3ccc(-c4nccc(C#N)c4N)cc3c2N2CC[C@@H]3NCCO[C@H]3C2)c1 [Compound 1-4, 2-{4-[(4aS,8aS)-octahydro-1H-pyrido[3,4-b][1,4]oxazin-6-yl]-3-(3-fluoro-5-methylphenyl)quinolin-6-yl}-3-aminopyridine-4-carbonitrile]
EC50 [1]: < 10 nM

N#Cc1ccnc(-c2ccc3ncc(-c4cc(F)cc(Cl)c4)c(N4CC[C@@H]5NCCO[C@H]5C4)c3c2)c1N [Compound 1-5, 2-{4-[(4aS,8aS)-octahydro-1H-pyrido[3,4-b][1,4]oxazin-6-yl]-3-(3-chloro-5-fluorophenyl)quinolin-6-yl}-3-aminopyridine-4-carbonitrile]
EC50 [1]: < 10 nM

Nc1c(/C=N/O)ccnc1-c1ccc2ncc(-c3cc(F)cc(F)c3)c(N3CC[C@@H]4NCCO[C@H]4C3)c2c1 [Compound 1-6, 2-{4-[(4aS,8aS)-octahydro-1H-pyrido[3,4-b][1,4]oxazin-6-yl]-3-(3,5-difluorophenyl)quinolin-6-yl}-4-[(1E)-(hydroxyimino)methyl]pyridin-3-amine]
EC50 [1]: < 10 nM

N#Cc1ccnc(-c2ccc3ncc(-c4cccc(F)c4)c(N4CC[C@@H]5NCCO[C@H]5C4)c3c2)c1N [Compound 1-7, 2-{4-[(4aS,8aS)-octahydro-1H-pyrido[3,4-b][1,4]oxazin-6-yl]-3-(3-fluorophenyl)quinolin-6-yl}-3-aminopyridine-4-carbonitrile]
EC50 [1]: < 10 nM

Cc1ccnc(-c2ccc3ncc(-c4cccc(F)c4)c(N4CC[C@@H]5NCCO[C@H]5C4)c3c2)c1N [Compound 1-8, 2-{4-[(4aS,8aS)-octahydro-1H-pyrido[3,4-b][1,4]oxazin-6-yl]-3-(3-fluorophenyl)quinolin-6-yl}-4-methylpyridin-3-amine]
EC50 [1]: < 10 nM

Cc1cc(F)cc(-c2cnc3ccc(-c4cccc(C#N)c4O)c(F)c3c2N2CCC(N)CC2)c1 [Compound 1-9, 3-[4-(4-aminopiperidin-1-yl)-5-fluoro-3-(3-fluoro-5-methylphenyl)quinolin-6-yl]-2-hydroxybenzonitrile]
EC50 [1]: < 10 nM

Cc1cc(F)cc(-c2cnc3cc(F)c(-c4cccc(C#N)c4O)cc3c2N2CCC(N)CC2)c1 [Compound 1-10, 3-[4-(4-aminopiperidin-1-yl)-7-fluoro-3-(3-fluoro-5-methylphenyl)quinolin-6-yl]-2-hydroxybenzonitrile]
EC50 [1]: < 10 nM

N#Cc1cccc(-c2ccc3ncc(-c4cc(F)cc(F)c4)c(N4CCC(N)CC4)c3c2)c1O [Compound A, 3-(4-(4-amino-piperidin-1-yl)-3-(3,5-difluoro-phenyl)-quinolin-6-yl)-2-hydroxy-benzonitrile]
solubility at 2 days [2, 5]: 2430 µg/mL (≈ 5320 µM) | solubility at 2 days [2, 6]: 13 µg/mL (≈ 28.5 µM) | Solubility in Water ([2]; water, listed as Compound A (free base)): 0.005 mg/mL (≈ 11 µM) | EC50 [1]: < 10 nM

N#Cc1cccc(-c2ccc3ncc(-c4cc(F)cc(F)c4)c(N4CCC(N)CC4)c3c2)c1O [Compound A-2HCl, 3-[4-(4-amino-piperidin-1-yl)-3-(3,5-difluoro-phenyl)-quinolin-6-yl]-2-hydroxy-benzonitrile dihydrochloride]
Solubility in FaSSGF ([2]; Fasted State Simulated Gastric Fluid, dihydrochloride): 3.69 mg/mL | Solubility in FaSSIF ([2]; Fasted State Simulated Intestinal Fluid, dihydrochloride): 0.011 mg/mL | Solubility in Water ([2]; water, dihydrochloride): 5.63 mg/mL | XRPD after DVS analysis [3]: unchanged | reversible water uptake ([3]; between 2 and 95% RH): ~18 % w/w | reversible water uptake ([3]; between 15 and 75% RH): ~9 % w/w

Cl.N#Cc1cccc(-c2ccc3ncc(-c4cc(F)cc(F)c4)c(N4CCC(N)CC4)c3c2)c1O [Compound A-HCl, 3-[4-(4-amino-piperidin-1-yl)-3-(3,5-difluoro-phenyl)-quinolin-6-yl]-2-hydroxy-benzonitrile monohydrochloride]
solubility at 2 days [2, 5]: 2120 µg/mL | solubility at 2 days [2, 6]: 10 µg/mL | solubility at 2 days ([2]; water, water, water, read-out: Solubility in Water): 830 µg/mL | XRPD after DVS analysis [3]: unchanged | reversible water uptake ([3]; between 2 and 95% RH): ~4.5 % w/w | reversible water uptake ([3]; between 15 and 75% RH): ~2.3 % w/w | temperature up to which the solid is intact [4]: up to 200 °C
